Data as given in patent publication US20190364896A1, “SYNERGISTIC WEED CONTROL FROM APPLICATIONS OF PYRIDINE CARBOXYLIC ACID HERBICIDES AND ALS INHIBITORS” (Dow AgroSciences LLC, priority 2014, published 2019).
Several values for one entry are separate records, joined by “and”; a condition that tells them apart may be missing. Equal entries are not always repeated. Where two headings read alike, the source gives them in different places.

How the values were obtained:
[1] = system: pigweed (Amaranthus retroflexus, AMARE); test: Postemergence herbicidal activity, greenhouse trial (visual injury 0-100%); format: in vivo; conditions: Amaranthus retroflexus, post-emergence, read-out: % visual injury Obs
Summary of the method: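 Seedlings were raised 7-36 d in a greenhouse, then treated postemergence at the second or third true leaf stage. Mixtures were applied overhead at 187 L/ha, and plants were sub-irrigated to avoid wash-off. Injury was rated visually 20-22 d later.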

[2] = system: giant foxtail (Setaria faberi, SETFA); test: as above; format: in vivo
[3] = system: spring rape (Brassica napus, BRSNN); test: as above; format: in vivo
[4] = system: turnip (Brassica rapa, BRSRR); test: as above; format: in vivo; conditions: 5 g ae/ha
Description: (§1) Seeds of the desired test plant species were planted in Sun Gro MetroMix® 306 planting mixture, which typically has a pH of 6.0 to 6.8 and an organic matter content of about 30 percent, in plastic pots with a surface area of 103.2 square centimeters (cm^2). […] The plants were grown for 7-36 days (d) in a greenhouse with an approximate 14-hour (h) photoperiod which was maintained at about 23° C. during the day and 22° C. during the night. Nutrients and water were added on a regular basis and supplemental lighting was provided with overhead metal halide 1000-Watt lamps as necessary. The plants were employed for testing when they reached the second or third true leaf stage.
(§2) Weighed amounts of technical material were dissolved in a volume of 97:3 volume per volume (v/v) acetone/dimethyl sulfoxide (DMSO) to stock solutions. […] The concentrated stock solutions were diluted with an aqueous mixture of 1.5% v/v of Agri-dex crop oil concentrate to provide the appropriate application rates. Compound requirements are based upon a 12 milliliter (mL) application volume at a rate of 187 liters per hectare (L/ha). Spray solutions of the experimental compound mixtures were prepared by adding the stock solutions to the appropriate amount of dilution solution to form a 12 mL spray solution in two-way combinations. Formulated compounds were applied to the plant material with an overhead Mandel track sprayer equipped with 8002E nozzles calibrated to deliver 187 L/ha over an application area of 0.503 square meters (m^2) at a spray height of 18 inches (43 centimeters (cm)) above average plant canopy. Control plants were sprayed in the same manner with the solvent blank. Application rates for component (a) are in g ae/ha, and application rates for component (b) are in g ai/ha.
(§3) The treated plants and control plants were placed in a greenhouse as described above and watered by sub-irrigation to prevent wash-off of the test compounds. After 20-22 d, the condition of the test plants as compared with that of the control plants was determined visually and scored on a scale of 0 to 100 percent where 0 corresponds to no injury and 100 corresponds to complete kill. The condition of the test plants was compared with that of the control plants as determined visually and scored on a scale of 0 to 100 percent, where 0 corresponds to no injury and 100 corresponds to complete kill. Colby's equation was used to determine the herbicidal effects expected from the mixtures.
(§4) Compound 1 was formulated as an EC and was combined with imazamox, imazamethabenz, imazapic, imazapyr or imazethapyr. The mixtures were applied to winter wheat (TRZAW) and/or maize (ZEAMX), and the phytotoxicity of the herbicidal compositions was measured. In addition, the efficacy of the herbicidal compositions on blackgrass (Alopecurus myosuroides, ALOMY), wild oat (Avena fatua, AVEFA), winter rape (Brassica napus, BRSNW), spring rape (Brassica napus, BRSNN), turnip (Brassica rapa, BRSRR), thistle (Cirsium arvense, CIRAR), large crabgrass (Digitaria sanguinalis, DIGSA), pigweed (Amaranthus retrollexus, AMARE), common lambsquarters (Chenopodium album L., CHEAL), poinsettia (Euphorbia heterophylla, EPHHL), ivyleaf morning-glory (Ipomoea hederacea, IPOHE), kochia (Kochia scoparia, KCHSC), wild buckwheat (Polygonum convolvulus, POLCO), grain sorghum (Sorghum vulgare, SORVU), chickweed (Stellaria media, STEME), wild pansy (Viola tricolor, VIOTR), sunflower (Helianthus annuus, HELAN), giant foxtail (Setaria faberi, SETFA), soybean (Glycine max, GLXMA), rutabaga (Brassica napus var. napobrassica, BRSNA) and barnyardgrass (Echinochloa crus-galli, ECHCG) was evaluated.

[5] = system: soybean (Glycine max, GLXMA); test: as above; format: in vivo
Description: as §1, §2, §3, §4

[6] = system: rutabaga (Brassica napus var. napobrassica, BRSNA); test: as above; format: in vivo; conditions: 5 g ae/ha
Description: as §1, §2, §3, §4

[7] = system: large crabgrass (Digitaria sanguinalis, DIGSA); test: as above; format: in vivo
[8] = system: winter wheat (Triticum aestivum, TRZAW); test: Postemergence crop injury (phytotoxicity), greenhouse trial (visual injury 0-100%); conditions: 7.5 g ai/ha
Description: as §1, §2, §3
Compound 2 was combined with florasulam and applied to winter wheat (TRZAW) and the phytotoxicity of the herbicidal composition was measured. In addition, the efficacy of the herbicidal composition on poinsettia (Euphorbia heterophylla, EPHHL) and […] (Cyperus esculentus, CYPES) was evaluated.
Weighed amounts of technical or formulated material (emulsifiable concentrate (EC) or soluble concentrate (SL)) were dissolved in a volume of 97:3 volume per volume (v/v) acetone/dimethyl sulfoxide (DMSO) to stock solutions. […] The concentrated stock solutions were diluted with an aqueous mixture of 1.5% v/v of Agri-dex crop oil concentrate to provide the appropriate application rates. Compound requirements are based upon a 12 milliliter (mL) application volume at a rate of 187 liters per hectare (L/ha). Spray solutions of the experimental compound mixtures were prepared by adding the stock solutions to the appropriate amount of dilution solution to form a 12 mL spray solution in two-way combinations. […]

## Nc1c(F)c(-c2ccc3cc[nH]c3c2F)nc(C(=O)O)c1Cl [Compound 1]
[1]; 5 g ae/ha
  pest or weed control at 5 g/ha: 95%
[1]; 10 g ae/ha
  pest or weed control at 10 g/ha: 97%
[1]; AMARE, Compound 1 5 g ae/ha
  pest or weed control at 5 g/ha: 75%
[1]; AMARE, Compound 1 10 g ae/ha
  pest or weed control at 10 g/ha: 97%
[2]; 5 g ae/ha
  % visual injury Obs: 10%
[2]; 10 g ae/ha
  % visual injury Obs: 50%
[2]; SETFA, Compound 1 5 g ae/ha
  % visual injury Obs: 10%
[2]; SETFA, Compound 1 10 g ae/ha
  % visual injury Obs: 50%
[3]; 5 g ae/ha
  % visual injury Obs: 50%
[3]; BRSNN, Compound 1 5 g ae/ha
  % visual injury Obs: 70%
[4]
  % visual injury Obs: 50%
[5]; 5 g ae/ha
  % visual injury Obs: 95%
[5]; 10 g ae/ha
  % visual injury Obs: 100%
[6]
  % visual injury Obs: 65%
[7]; 5 g ae/ha
  % visual injury Obs: 5% and 0%
[7]; 10 g ae/ha
  % visual injury Obs: 10%

## CCCOc1nn(C(=O)NS(=O)(=O)c2ccccc2C(=O)OC)c(=O)n1C [Propoxycarbazone, propoxycarbazone]
[8]
  % visual injury Obs: 10%
